Experimental findings from PMC4632246 (Analytical biochemistry, 2012) are described below.

Holding throughout (assay type): binding
For assay [1], the target named is Hsp90α-CT (human Hsp90α immobilized via the C-terminal) (Homo sapiens, UniProt P07900). The assay is described as follows: Frontal chromatography on Hsp90α-CT column. The conditions noted are these: for Bmax: Hsp90α-CT column, frontal chromatography, number of active binding sites, ±SE.
Assay [2] deals with Hsp90α-NT (human Hsp90α immobilized via the N-terminal) (Homo sapiens, UniProt P07900). Nature of the assay: Frontal chromatography on Hsp90α-NT column. The conditions noted are these: for Bmax: Hsp90α-NT column, frontal chromatography, number of active binding sites, ±SE.
Assay [3] has as its target Hsp90α-NT (middle domain of Hsp90α) (Homo sapiens, UniProt P07900). Nature of the assay: Competition studies of eNOS and CEP on Hsp90α-NT column. Particulars: eNOS added to the mobile phase.

Consider `COc1cc2c3c(c1OC)Oc1ccc(cc1)C[C@@H]1c4c(cc(OC)c(OC)c4Oc4ccc(cc4)C[C@H]3N(C)CC2)CCN1C` [Cycleanine, cycleanine], for which the dissociation constant Kd was determined as 143 ± 36.6 µM in assay [1] and 159 ± 23.2 µM in assay [2]. The Bmax in assay [1] is recorded as 578 ± 110 nmol; in assay [2], 37.3 ± 2.5 nmol.

Consider berbamine, for which the figures for the Bmax in assay [1] and in assay [2] were 89.7 ± 17.1 nmol and 36.5 ± 3.3 nmol, respectively.

Regarding isotetrandrine, the Bmax in assay [1] is reported as 250 ± 29.7 nmol; in assay [2], 54.7 ± 6.3 nmol.

As to `COc1ccc2cc1Oc1ccc(cc1)C[C@H]1c3c(cc4c(c3Oc3cc5c(cc3OC)CCN(C)[C@@H]5C2)OCO4)CCN1C` [Cepharanthine, cepharanthine], in assay [3], the “retention factors of CEP with an increase in eNOS concentrations” value is “decreased”. The Kd in assay [1] came out at 6.3 ± 1.7 µM; in assay [2], 5.3 ± 1.3 µM. The Bmax is 56.9 ± 7.2 nmol in assay [1] and 19.8 ± 3.1 nmol in assay [2].

For orientation: Kd means a measure of binding affinity in units of concentration.
